This is an account of results in patent US7723376B2, “2-oxo-heterocyclic compounds and pharmaceutical compositions” (Korea Research Institute of Bioscience and Biotechnology, priority 2003, dated 2010).

Where only a bound is given, the exact number is not on record here.

The test system of one assay is histone deacetylase (HDAC). The experiment in a line: HDAC Fluorescent Activity Assay/Drug Discovery Kit (Biomol) with nuclear extracts of HeLa cell as HDAC source. The note with it: compounds 0.01 to 10 μM, 25° C., 20 minutes, fluorescence. Format: biochemical.
Procedure: Fluorogenic Histone Deacetylase Lysyl Substrate was used as substrate for HDAC and the test is based on the fact that the removal of acetyl group by HDAC activity causes the substrate to occur emmition wavelength in the ranging from 360 nm to 460 nm.
Various concentrations of the compounds of the present invention ranging from 0.01 to 10 μM were reacted with HDAC enzyme at 25° C. for 20 minutes and equal volume of developer was added thereto. The fluorescence signal was detected at the wavelength in the range 350 to 460 nm using by fluorescence spectrometer.
Consider `O=C(CCC1=CCN(CCCc2ccccc2)C1=O)NO` [Example 4, N-hydroxy-3-[2-oxo-1-(3-phenyl-propyl)-2,5-dihydro-1H-pyrrol-3-yl]-propionamide], for which the HDAC inhibition entry is on record as “AAA”.

In another assay the test system is PC-3 cells. The experiment in a line: Tumor cell growth inhibition, sulforhodamine B (SRB) staining. The assay is classed as cell-based. Particulars: PC-3 human prostatic carcinoma cells, 48 hrs, absorbance 540 nm, adriamycin as positive control. On the procedure: PC-3 cells (ATCC, US), human prostatic carcinoma cell line, were cultured in RMPI 1640 supplemented with 10% fetal bovine serum.
Appropriate concentrations of cells (5×10^4 cells/ml) cultured in RMPI 1640 supplemented with 5% fetal bovine serum were poured into 96-well plate and incubated at 37° C. in 5% CO2 condition. The day after the incubation, PC-3 cells were fixed on Time zero (T0) plate by adding 50 μl/well of 50% trichloroacetic acid and the cell concentration was set to zero point by fixing the cells. In the cells treated with test samples, 50% TCA was added to each wells in 50 ul/well after 48 hrs to fix the cells. The final concentration of adding test compounds were 0.01, 0.03, 0.1, 0.3, 1 μg/ml respectively. Then, each fixed plate was washed, dried and 100 μl/well of 0.4% reaction solution containing sulforhodamine B (SRB) reagent dissolved in 0.1% acetic acid was added thereto to stain the cells. 30 minutes later, the cell was washed with 0.1% acetic acid, dried at room temperature, and 10 mM of TRIS base (pH 10.5) was added thereto to dissolve the staining agent. Finally, the absorbance detected at 540 nm was measured and the value was conversed into percentage comparing with that of control group. IC50 (μg/ml), the concentration of the group required to inhibit the cancer cell growth by 50%, was calculated from the data (AA: IC50's<1, A: IC50's<5, B: IC50's<10 and C: IC50's>10). Also, the inhibiting activity of cell growth was expressed as various symbols in accordance with the potency of examples e.g., AA: closely equivalent (1˜2 times), A: slightly weaker (3˜5 times), B: weaker (5˜10 times), C: very weaker (more than 10 times) than that of adriamycin used as a positive control group.
As to `O=C(CCC1=CCN(CCCc2ccccc2)C1=O)NO` [Example 4, N-hydroxy-3-[2-oxo-1-(3-phenyl-propyl)-2,5-dihydro-1H-pyrrol-3-yl]-propionamide], the IC50 (commonly the point on the concentration scale where inhibition reaches its midpoint) was less than 5 µg/mL.
On the same count and under the same terms, the result for `CC(C)c1ccc(CCCN2CC=C(CCC(=O)NO)C2=O)cc1` [Example 43, N-hydroxy-3-{1-[3-(4-isopropyl-phenyl)-propyl]-2-oxo-2,5-dihydro-1H-pyrrol-3-yl]-propionamide] reads less than 5 µg/mL; that for `O=C(CCC1=CCN(CCCc2ccc(Br)cc2)C1=O)NO` [Example 44, 3-{1-[3-(4-bromo-phenyl)-propyl]-2-oxo-2,5-dihydro-1H-pyrrol-3-yl]-N-hydroxy-propionamide], less than 10 µg/mL.
In turn, `O=C(CCC1=CCN(CCCc2ccc(Cl)cc2)C1=O)NO` [Example 45, 3-{1-[3-(4-chloro-phenyl)-propyl]-2-oxo-2,5-dihydro-1H-pyrrol-3-yl]-N-hydroxy-propionamide] yielded an IC50 of less than 10 µg/mL.
Still for that read-out and setting: the result for `COc1ccc(CCCN2CC=C(CCC(=O)NO)C2=O)cc1` [Example 46, N-hydroxy-3-{1-[3-(4-methoxy-phenyl)-propyl]-2-oxo-2,5-dihydro-1H-pyrrol-3-yl]-propionamide] reads less than 10 µg/mL.
The same measure, in the same setting: the value for `O=C(CCC1=CCN(Cc2ccc3ccccc3c2)C1=O)NO` [Example 49, N-hydroxy-3-(1-naphthalene-2-ylmethyl-2-oxo-2,5-dihydro-1H-pyrrol-3-yl)-propionamide] was less than 5 µg/mL.
Take `CN1CC=C(CCC(=O)NO)C1=O` [Example 50, N-hydroxy-3-(1-methyl-2-oxo-2,5-dihydro-1H-pyrrol-3-yl)-propionamide]: the IC50 was less than 1 µg/mL.
Still for that read-out and setting: the result for `C=CCN1CC=C(CCC(=O)NO)C1=O` [Example 51, 3-(1-allyl-2-oxo-2,5-dihydro-1H-pyrrol-3-yl)-N-hydroxy-propionamide] reads more than 10 µg/mL; that for `O=C(CCC1=CCN(CCc2ccc3ccccc3c2)C1=O)NO` [Example 53, N-hydroxy-3-[1-(2-naphthalene-2-yl-ethyl)-2-oxo-2,5-dihydro-1H-pyrrol-3-yl]-propionamide], less than 1 µg/mL.
`O=C(CCC1=CCN(CCc2cccs2)C1=O)NO` [Example 54, N-hydroxy-3-[2-oxo-1-(2-thiophen-2-yl-ethyl)-2,5-dihydro-1H-pyrrol-3-yl]-propionamide] gave an IC50 of less than 5 µg/mL.
The same measure, in the same setting: the value for `O=C(CCC1=CCN(CCCc2ccc(-c3ccccc3)cc2)C1=O)NO` [Example 55, 3-[1-(3-biphenyl-4-yl-propyl)-2-oxo-2,5-dihydro-1H-pyrrol-3-yl]-N-hydroxy-propionamide] was less than 1 µg/mL.
In the case of `O=C(CCC1=CCN(CCCc2ccc3ccccc3c2)C1=O)NO` [Example 56, N-hydroxy-3-[1-(3-naphthalene-2-yl-propyl)-2-oxo-2,5-dihydro-1H-pyrrol-3-yl]-propionamide], the Cell growth inhibition entry is given as “AAA”.
Take `COc1ccc(CN2CCC=C(CCC(=O)NO)C2=O)c(OC)c1` [Example 57, 3-[1-(2,4-dimethoxybenzyl)-2-oxo-1,2,5,6-tetrahydro-pyridin-3-yl]-N-hydroxy-propionamide]: the IC50 is less than 1 µg/mL.
Same read-out and setting: the result for `O=C(CCC1=CCCN(Cc2ccccc2)C1=O)NO` [Example 58, N-hydroxy-3-(1-benzyl-2-oxo-1,2,5,6-tetrahydro-pyridin-3-yl)-propionic acid] reads less than 10 µg/mL.
`O=C(CCC1=CCCN(Cc2ccc([N+](=O)[O-])cc2)C1=O)NO` [Example 59, N-hydroxy-3-[1-(4-nitro-benzyl)-2-oxo-1,2,5,6-tetrahydro-pyridin-3-yl)-propionamide] returned an IC50 of less than 10 µg/mL.
Same read-out and setting: the result for `O=C(CCC1=CCCN(CCc2ccccc2)C1=O)NO` [Example 60] reads less than 10 µg/mL.
As to `COc1ccc(CN2CCC=C(CCC(=O)O)C2=O)c(OC)c1` [Example 63, 3-[1-(2,4-dimethoxybenzyl)-2-oxo-1,2,5,6-tetrahydro-pyridin-3-yl)-propionic acid], the IC50 was more than 10 µg/mL.
For `O=C(O)CCC1=CCCN(Cc2ccccc2)C1=O` [Example 64, 3-(1-benzyl-2-oxo-1,2,5,6-tetrahydro-pyridin-3-yl)-propionic acid], the IC50 was more than 10 µg/mL.
Still for that read-out and setting: the result for `O=C(O)CCC1=CCCN(Cc2ccc([N+](=O)[O-])cc2)C1=O` [Example 65, 3-[1-(4-nitro-benzyl)-2-oxo-1,2,5,6-tetrahydro-pyridin-3-yl)-propionic acid] reads more than 10 µg/mL.
The same measure, in the same setting: the value for `O=C(CCC1=CCCN(Cc2ccccc2)C1=O)Nc1ccccn1` [Example 69, 3-(1-benzyl-2-oxo-1,2,5,6-tetrahydro-pyridin-3-yl)-N-pyridin-2-yl-propionamide] was more than 10 µg/mL; that for `O=C(CCC1=CCCN(CCc2ccccc2)C1=O)NOCc1ccccc1` [Example 73, N-benzyloxy-3-(2-oxo-1-phenethyl-1,2,5,6-tetrahydro-pyridin-3-yl)-propionamide] was more than 10 µg/mL.
Same read-out and setting: the result for `CC(=O)Nc1ccc(CN2CCC=C(CCC(=O)NO)C2=O)cc1` [Example 74, 3-[1-(4-acetylamino-benzyl)-2-oxo-1,2,5,6-tetrahydro-pyridin-3-yl)-N-hydroxy-propionamide] reads more than 10 µg/mL; that for `O=C(CCC1=CCCN(Cc2ccc(NC(=O)c3ccccc3)cc2)C1=O)NO` [Example 75, N-4-[5-(2-hydroxycarbamoyl-ethyl)-6-oxo-3,6-dihydro-2-pyridin-1-yl-methyl]-phenyl-benzamide], less than 10 µg/mL.
In the case of `CS(=O)(=O)N(c1ccc(CN2CCC=C(CCC(=O)NO)C2=O)cc1)S(C)(=O)=O` [Example 76, N-hydroxy-3-[1-(4-dimethylsulfonylamino-benzyl)-2-oxo-1,2,5,6-tetrahydro-pyridin-3-yl]-propionamide], the IC50 is more than 10 µg/mL.
Same read-out and setting: the value for `Cc1ccc(S(=O)(=O)Nc2ccc(CN3CCC=C(CCC(=O)NO)C3=O)cc2)cc1` [Example 77, N-hydroxy-3-2-oxo-1-[4-(toluene-4-sulfonylamino)-benzyl-1,2,5,6-tetrahydro-pyridin-3-yl]-propionamide] was less than 5 µg/mL.
On the same count and under the same terms, the value for `O=C(CCC1CCCN(CCc2ccccc2)C1=O)NO` (stereo not drawn) [Example 81, N-hydroxy-3-(2-oxo-1-phenethyl-piperidine-3-yl)-propionamide] was more than 10 µg/mL; that for `COc1ccc(CN2CCC=C(CC(=O)NO)C2=O)c(OC)c1` [Example 82, 2-[1-(2,4-dimethoxy-benzyl)-2-oxo-1,2,5,6-tetrahydro-pyridin-3-yl]-N-hydroxy-acetamide] was more than 10 µg/mL; that for `O=C(CC1=CCCN(Cc2ccccc2)C1=O)NO` [Example 83, 2-(1-benzyl-2-oxo-1,2,5,6-tetrahydro-pyridin-3-yl)-N-hydroxy-acetamide] was more than 10 µg/mL.
The same measure, in the same setting: the value for `O=C(CC1=CCCN(CCCCc2ccccc2)C1=O)NO` [Example 86, N-hydroxy-2-[2-oxo-1-(4-phenyl-butyl)-1,2,5,6-tetrahydro-pyridin-3-yl]-N-hydroxy-acetamide] was more than 10 µg/mL; that for `COc1ccc(CN2CCCC(CC(=O)NO)C2=O)c(OC)c1` (stereo not drawn) [Example 92, 2-[1-(2,4-dimethoxy-benzyl)-2-oxo-piperidine-3-yl]-N-hydroxy-acetamide] was more than 10 µg/mL.
In turn, `COc1ccc(CN2CCC=C(CCCC(=O)NO)C2=O)cc1` [Example 95, 4-[1-(4-methoxy-benzyl)-2-oxo-1,2,5,6-tetrahydro-pyridin-3-yl]-N-hydroxy-butylamide] came in with an IC50 of more than 10 µg/mL.
In the case of `C=CCN1CCC=C(CCC(=O)NO)C1=O` [Example 101, 3-(1-Allyl-2-oxo-1,2,5,6-tetrahydro-pyridin-3-yl)-N-hydroxy-propionamide], the IC50 was more than 10 µg/mL.
`CN1CCC=C(CCC(=O)NO)C1=O` [Example 102, N-hydroxy-3-(1-methyl-2-oxo-1,2,5,6-tetrahydro-pyridin-3-yl)-propionamide] gave a 50% inhibitory concentration (IC50) of more than 10 µg/mL.
The same measure, in the same setting: the value for `O=C(CCC1=CCCN(Cc2ccc3ccccc3c2)C1=O)NO` [Example 103, N-hydroxy-3-(1-(naphthalene-2-yl-methyl)-2-oxo-1,2,5,6-tetrahydro-pyridin-3-yl)-propionamide] was less than 10 µg/mL.
On the same count and under the same terms, the result for `O=C(CCC1=CCCN(CCc2cccs2)C1=O)NO` [Example 104, N-hydroxy-3-[2-oxo-1-(2-thiophen-2-yl-ethyl)-1,2,5,6-tetrahydro-pyridin-3-yl]-propionamide] reads less than 10 µg/mL; that for `O=C(CCC1=CCCCN(Cc2ccccc2)C1=O)NO` [Example 105, 3-(1-Benzyl-2-oxo-2,5,6,7-tetrahydro-1H-azepin-3-yl)-N-hydroxy-propionamide], more than 10 µg/mL.
As to `O=C(CCC1=CCCCN(CCCc2ccccc2)C1=O)NO` [Example 106, N-Hydroxy-3-[2-oxo-1-(3-phenyl-ethyl)-2,5,6,7-tetrahydro-1H-azepin-3-yl]-propionamide], the IC50 is more than 10 µg/mL.
In turn, `O=C(CCC1=CCCCN(CCCCc2ccccc2)C1=O)NO` [Example 108, N-Hydroxy-3-[2-oxo-1-(4-phenyl-butyl)-2,5,6,7-tetrahydro-1H-azepin-3-yl]-propionamide] gave an IC50 of more than 10 µg/mL.
